Results on eleven molecules are retold here after ChEMBL document CHEMBL1201862, “PubChem BioAssay data set” (2004).

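Results reflect a 48-hour exposure of cells in 96-well plates to compound at five concentrations. At the GI50, growth is halved.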 Active and inactive are the calls of the source. No stated cut-off is given here; in the data, active = GI50 up to about 1.1 µM and inactive = higher. Positions of bridges follow the written chain, without caps; N, C: chain ends. Non-standard residues stand in square brackets, D forms with d. Residues, ends and D or L forms follow the SMILES beside them. *: point of attachment. PhAc = O=C(Cc1ccccc1)*

Among the test systems are A549; ACHN; DU-145; EKVX; HCC 2998; HCT-15; HOP-92; HT-29; Hs-578T; LOX IMVI; MDA-MB-231; Malme-3M; NCI-H460; SF-268; SK-MEL-28; SK-MEL-2; SK-MEL-5; SW-620; UACC-257; UO-31.
Common to all, as to assay: NCI tumour cell line growth inhibition, 48 h

On to `O=C(CSc1n[nH]c(=O)[nH]c1=O)NNC(=O)c1cccc2nc3ccccc3nc12`, for which the GI50 with A549 is 39.4 µM (inactive); in the experiment on ACHN, > 100 µM (inactive); in the experiment with DU-145, 36.5 µM (inactive); in the experiment on EKVX, > 100 µM (inactive); in the experiment on HCC 2998, 40.8 µM (inactive); with HCT-15, 72.8 µM. For the same molecule, the GI50 in the experiment on HOP-92 was > 100 µM (inactive); in the experiment on HT-29, 49.4 µM (inactive); in the experiment with Hs-578T it was 40.4 µM (inactive); in the experiment with LOX IMVI it was 46.1 µM (inactive); in the experiment on MDA-MB-231, > 100 µM (inactive); with Malme-3M, 26.5 µM (inactive). Besides, the GI50 is 32.6 µM (inactive) in the experiment with NCI-H460; > 100 µM (inactive) with SF-268; > 100 µM (inactive) in the experiment with SK-MEL-28; > 100 µM (inactive) in the experiment on SK-MEL-2; 22 µM (inactive) in the experiment with SK-MEL-5; > 100 µM (inactive) in the experiment on SW-620. Moreover, the GI50 in the experiment on UACC-257 is 58.7 µM (inactive).

As for `CC(C)C(=O)NCC[C@@H](CNC(=O)OC(C)(C)C)NC(=O)OC(C)(C)C`, the GI50 in the experiment with A549 is > 100 µM (inactive); with ACHN it was > 100 µM (inactive); in the experiment on DU-145, > 100 µM (inactive); in the experiment on EKVX, > 100 µM (inactive); in the experiment with HCC 2998 it was > 100 µM (inactive); in the experiment with HCT-15 it was above 100 µM. Besides, the GI50 in the experiment with HOP-92, with HT-29, in the experiment on Hs-578T, with MDA-MB-231, with Malme-3M and in the experiment on NCI-H460 was > 100 µM (inactive) throughout. Also, the GI50 in the experiment on SF-268, with SK-MEL-28, in the experiment with SK-MEL-2, with SK-MEL-5, in the experiment with SW-620 and in the experiment on UACC-257 was > 100 µM (inactive) throughout. The GI50 with UO-31 was > 100 µM (inactive).

Turning to `Cc1cc(Cl)nc(Nc2nc3ccccc3[nH]2)n1`, the GI50 was > 100 µM (inactive) in the experiment on A549; > 100 µM (inactive) in the experiment with ACHN; > 100 µM (inactive) in the experiment with DU-145; > 100 µM (inactive) with HCC 2998; above 100 µM in the experiment with HCT-15; 21.8 µM (inactive) in the experiment on HOP-92. Moreover, the GI50 with HT-29 is > 100 µM (inactive); in the experiment with Hs-578T, 40.1 µM (inactive); with LOX IMVI it was > 100 µM (inactive); in the experiment on MDA-MB-231, > 100 µM (inactive); in the experiment with Malme-3M, > 100 µM (inactive); in the experiment with NCI-H460, > 100 µM (inactive). For the same molecule, the GI50 in the experiment with SF-268, in the experiment on SK-MEL-28, in the experiment with SK-MEL-2, with SK-MEL-5, with SW-620 and in the experiment with UACC-257 was > 100 µM (inactive) each time. The GI50 in the experiment on UO-31 is > 100 µM (inactive).

As to `O=c1c2cc(-c3ccccc3)sc2nc2n1N=C(c1ccc(Cl)cc1)CS2`, the GI50 is > 100 µM (inactive) in the experiment with A549; > 100 µM (inactive) in the experiment with ACHN; > 100 µM (inactive) in the experiment on DU-145; > 100 µM (inactive) in the experiment with EKVX; > 100 µM (inactive) with HCC 2998; above 100 µM in the experiment on HCT-15. Also, the GI50 in the experiment on HOP-92, in the experiment on HT-29, in the experiment with Hs-578T, in the experiment with LOX IMVI, in the experiment on MDA-MB-231 and in the experiment with Malme-3M was > 100 µM (inactive) throughout. Further, the GI50 with NCI-H460, with SF-268, in the experiment on SK-MEL-28, with SK-MEL-5, in the experiment with SW-620 and in the experiment with UACC-257 was > 100 µM (inactive) throughout. Further, the GI50 with UO-31 was > 100 µM (inactive).

With `C1=Cc2nccc3cc4c(c(c23)N1)OCO4`, the GI50 with A549 is 5.3 µM (inactive); with ACHN, 4.52 µM (inactive); with DU-145, 6.15 µM (inactive); in the experiment on EKVX, 9.55 µM (inactive); in the experiment with HCC 2998 it was 8.95 µM (inactive); with HCT-15, 13.9 µM. The GI50 in the experiment with HOP-92 was 22.3 µM (inactive); in the experiment on Hs-578T, 3.58 µM (inactive); in the experiment on LOX IMVI, 8.61 µM (inactive); with MDA-MB-231 it was 10.3 µM (inactive); in the experiment with Malme-3M, 9.23 µM (inactive); with NCI-H460 it was 4.36 µM (inactive). Also, the GI50 in the experiment on SF-268 was 8.13 µM (inactive); in the experiment with SK-MEL-28, 24 µM (inactive); in the experiment with SK-MEL-2, 13.3 µM (inactive); in the experiment with SW-620, 5.68 µM (inactive); in the experiment with UACC-257, 17.5 µM (inactive); in the experiment with UO-31, 6.44 µM (inactive).

As for `O=S(=O)(Nc1ccccc1S(=O)(=O)c1ccccc1)c1ccccc1`, the GI50 was 67.1 µM (inactive) in the experiment with A549; 82.2 µM (inactive) with ACHN; 87.9 µM (inactive) in the experiment on DU-145; 29.4 µM (inactive) in the experiment with EKVX; 44.6 µM (inactive) in the experiment on HCC 2998; 50.6 µM in the experiment with HCT-15. Besides, the GI50 was 76.9 µM (inactive) in the experiment on HOP-92; 48 µM (inactive) in the experiment with HT-29; 51.9 µM (inactive) in the experiment on Hs-578T; > 100 µM (inactive) with LOX IMVI; > 100 µM (inactive) with MDA-MB-231; 69.5 µM (inactive) with Malme-3M. In addition, the GI50 with SF-268 was 91 µM (inactive); with SK-MEL-28, > 100 µM (inactive); in the experiment with SK-MEL-2, 64.3 µM (inactive); in the experiment on SK-MEL-5 it was 58.6 µM (inactive); in the experiment with SW-620, 92.3 µM (inactive); in the experiment with UACC-257, 73.1 µM (inactive). Further, the GI50 in the experiment on UO-31 was > 100 µM (inactive).

Take `CC[C@@]1(O)C(=O)OCc2c1cc1n(c2=O)Cc2c-1nc1ccccc1c2/C=N\NC(=O)C(N)Cc1ccc(O)cc1` (stereo partly specified): the GI50 in the experiment on A549 is 0.815 µM (active); in the experiment with ACHN, 0.133 µM (active); in the experiment on DU-145, 0.331 µM (active); with EKVX, 2.57 µM (inactive); in the experiment with HCC 2998, 4.03 µM (inactive); in the experiment with HCT-15, 4.32 µM. In addition, the GI50 is 1.27 µM (inactive) in the experiment with HOP-92; 1.36 µM (inactive) in the experiment on HT-29; 7.43 µM (inactive) in the experiment with Hs-578T; 0.189 µM (active) in the experiment with LOX IMVI; 15.8 µM (inactive) in the experiment on MDA-MB-231; 1.35 µM (inactive) in the experiment with Malme-3M. In addition, the GI50 is 0.187 µM (active) with NCI-H460; 0.202 µM (active) in the experiment with SF-268; 6.24 µM (inactive) with SK-MEL-28; 0.638 µM (active) with SK-MEL-5; 1.52 µM (inactive) in the experiment on SW-620; 2.45 µM (inactive) with UACC-257. Besides, the GI50 in the experiment on UO-31 was 0.619 µM (active).

Take `O=c1[nH]cc(/N=C/c2cc(Cl)cc(Cl)c2O)c(=O)[nH]1`: the GI50 was > 100 µM (inactive) in the experiment with A549; 36.3 µM (inactive) with ACHN; 23 µM (inactive) in the experiment with DU-145; 30.7 µM (inactive) with EKVX; 33.3 µM (inactive) with HCC 2998; 36.4 µM in the experiment with HCT-15. For the same molecule, the GI50 is 27.4 µM (inactive) in the experiment on HOP-92; 26.5 µM (inactive) in the experiment on HT-29; 21.4 µM (inactive) in the experiment with Hs-578T; 48.3 µM (inactive) in the experiment on MDA-MB-231; 20.8 µM (inactive) in the experiment on Malme-3M; 39.9 µM (inactive) in the experiment on NCI-H460. Also, the GI50 is 14.2 µM (inactive) in the experiment on SF-268; 22.9 µM (inactive) in the experiment on SK-MEL-28; 19.3 µM (inactive) in the experiment on SK-MEL-2; 19.1 µM (inactive) in the experiment on SK-MEL-5; 27.7 µM (inactive) with UACC-257; 29.5 µM (inactive) with UO-31.

On to `N#Cc1c(-c2ccc(F)cc2)c(-c2ccc(F)cc2)nn(CCO)c1=O`, for which the GI50 is 0.25 µM (active) in the experiment on A549; 0.413 µM (active) in the experiment on ACHN; 0.743 µM (active) in the experiment with DU-145; 0.47 µM (active) in the experiment with EKVX; 0.605 µM (active) in the experiment on HCC 2998; 0.132 µM in the experiment with HCT-15. In addition, the GI50 in the experiment on HOP-92 was 1.91 µM (inactive); with HT-29, 0.143 µM (active); with Hs-578T, 0.885 µM (active); in the experiment with MDA-MB-231, 0.661 µM (active); in the experiment on Malme-3M, 0.743 µM (active); with NCI-H460, 0.237 µM (active). Besides, the GI50 in the experiment with SF-268 is 0.875 µM (active); in the experiment with SK-MEL-28, 17.8 µM (inactive); with SK-MEL-2 it was < 0.01 µM (active); in the experiment with SK-MEL-5 it was 0.175 µM (active); with UACC-257 it was 1.19 µM (inactive); in the experiment with UO-31, 1.38 µM (inactive).

Consider `CCO[C@H]1O[C@@H]2OC3(C)CCC4[C@H](C)CCC([C@H]1C)[C@]42OO3` (stereo partly specified), for which the GI50 is 40.8 µM (inactive) in the experiment with A549; 32.2 µM (inactive) in the experiment on ACHN; > 100 µM (inactive) in the experiment with DU-145; > 49.1 µM (inactive) in the experiment with EKVX; 97.1 µM (inactive) with HCC 2998; 23.9 µM in the experiment with HCT-15. Moreover, the GI50 in the experiment with HOP-92 was > 100 µM (inactive); with HT-29, 61.2 µM (inactive); in the experiment with Hs-578T it was 29.9 µM (inactive); in the experiment with LOX IMVI, 24.2 µM (inactive); with MDA-MB-231, > 57 µM (inactive); with Malme-3M, 42.3 µM (inactive). Besides, the GI50 was > 55 µM (inactive) in the experiment on NCI-H460; > 100 µM (inactive) in the experiment on SF-268; > 75.5 µM (inactive) with SK-MEL-28; > 100 µM (inactive) with SK-MEL-2; 16 µM (inactive) with SK-MEL-5; > 44.9 µM (inactive) in the experiment on SW-620. Further, the GI50 with UO-31 was 15.4 µM (inactive).

`O=C(Cc1ccccc1)N[C@@H]1COC(=O)[C@@H]2CCCN2C(=O)[C@@H]2CCCN2C1=O` (PhAc-[dS]-Pro-Pro; ester 1-C): the GI50 in the experiment with A549 was > 100 µM (inactive); in the experiment on ACHN, > 100 µM (inactive); in the experiment on DU-145 it was > 100 µM (inactive); with EKVX, > 100 µM (inactive); with HCC 2998, > 100 µM (inactive); in the experiment on HCT-15, above 100 µM. The GI50 with HOP-92, in the experiment with HT-29, in the experiment on Hs-578T, in the experiment on LOX IMVI, with MDA-MB-231 and with Malme-3M was > 100 µM (inactive) each time. The GI50 in the experiment on NCI-H460, with SF-268, in the experiment on SK-MEL-28, with SK-MEL-2, in the experiment with SK-MEL-5 and in the experiment on SW-620 was > 100 µM (inactive) in each case. Moreover, the GI50 in the experiment with UACC-257 was > 100 µM (inactive).
